A short description of the data set: activity coefficient (dimensionless); of the first substance listed, at infinite dilution; xn = mol fraction of the nth substance listed. The settings on record: Liquid, Chromatography, x1 = 0.

± gives the expanded uncertainty stated by the source.

For the molecule `Cc1ccc(C)cc1` [1,4-dimethylbenzene] + CCCCCCCC[N+](C)(C)C.O=S(=O)([N-]S(=O)(=O)C(F)(F)F)C(F)(F)F, the activity coefficient is, setting by setting: (322.85 K) 1.38 ± 0.05; (332.65 K) 1.39 ± 0.05; (343.15 K) 1.37 ± 0.05.

Take `c1ccccc1` [benzene] + CCCCCCCC[N+](C)(C)C.O=S(=O)([N-]S(=O)(=O)C(F)(F)F)C(F)(F)F: the activity coefficient amounted to 0.73 ± 0.03 (322.85 K), 0.74 ± 0.03 (332.65 K) and 0.73 ± 0.03 (343.15 K).

For the molecule `C1COCCO1` [1,4-dioxane] + CCCCCCCC[N+](C)(C)C.O=S(=O)([N-]S(=O)(=O)C(F)(F)F)C(F)(F)F, the activity coefficient turned out to be 0.62 ± 0.03 (322.85 K), 0.62 ± 0.03 (332.65 K) and 0.61 ± 0.03 (343.15 K).

On to `C=O` [methanal] + CCCCCCCC[N+](CCCCCCCC)(CCCCCCCC)CCCCCCCC.O=S(=O)([N-]S(=O)(=O)C(F)(F)F)C(F)(F)F, for which the activity coefficient by setting is: (322.85 K) 0.07; (332.65 K) 0.08; (343.15 K) 0.09 ± 0.04.

For the molecule `c1ccccc1` [benzene] + CCCCCCCCCC[N+](C)(C)C.O=S(=O)([N-]S(=O)(=O)C(F)(F)F)C(F)(F)F, the activity coefficient is 0.71 ± 0.03 (322.85 K), 0.73 ± 0.03 (332.65 K) and 0.72 ± 0.03 (343.15 K).

With `CC1CCCC1` [methylcyclopentane] + CCCCCCCC[N+](CCCCCCCC)(CCCCCCCC)CCCCCCCC.O=S(=O)([N-]S(=O)(=O)C(F)(F)F)C(F)(F)F, the activity coefficient amounted to 0.98 ± 0.03 (322.85 K), 0.97 ± 0.03 (332.65 K) and 0.97 ± 0.03 (343.15 K).

Take `CCC(=O)CC` [pentan-3-one] + CCCCCCCC[N+](CCCCCCCC)(CCCCCCCC)CCCCCCCC.O=S(=O)([N-]S(=O)(=O)C(F)(F)F)C(F)(F)F: the activity coefficient is, setting by setting: (322.85 K) 0.32 ± 0.04; (332.65 K) 0.33 ± 0.04; (343.15 K) 0.35 ± 0.04.

`CCCCCCCCCC` [decane] + CCCCCCCC[N+](C)(C)C.O=S(=O)([N-]S(=O)(=O)C(F)(F)F)C(F)(F)F: the activity coefficient runs as follows: (322.85 K) 19.3 ± 0.89; (332.65 K) 17.9 ± 0.83; (343.15 K) 16.2 ± 0.75.

As for `C1CCCCCC1` [cycloheptane] + CCCCCCCCCC[N+](C)(C)C.O=S(=O)([N-]S(=O)(=O)C(F)(F)F)C(F)(F)F, the activity coefficient stood at 7.7 ± 0.35 (322.85 K), 10.8 ± 0.49 (332.65 K) and 14.6 ± 0.67 (343.15 K).

In the case of `c1ccncc1` [pyridine] + CCCCCCCC[N+](C)(C)C.O=S(=O)([N-]S(=O)(=O)C(F)(F)F)C(F)(F)F, the activity coefficient stood at 0.45 ± 0.03 (322.85 K), 0.44 ± 0.03 (332.65 K) and 0.43 ± 0.03 (343.15 K).

For the molecule `c1ccccc1` [benzene] + CCCCCCCC[N+](CCCCCCCC)(CCCCCCCC)CCCCCCCC.O=S(=O)([N-]S(=O)(=O)C(F)(F)F)C(F)(F)F, the activity coefficient stood at 0.4 ± 0.03 (322.85 K), 0.41 ± 0.03 (332.65 K) and 0.41 ± 0.03 (343.15 K).

For `CCOCC` [diethyl ether] + CCCCCCCC[N+](CCCCCCCC)(CCCCCCCC)CCCCCCCC.O=S(=O)([N-]S(=O)(=O)C(F)(F)F)C(F)(F)F, the activity coefficient runs as follows: (322.85 K) 0.71 ± 0.03; (332.65 K) 0.71 ± 0.03; (343.15 K) 0.71 ± 0.03.

In the case of `CC(C)OC(C)C` [diisopropyl ether] + CCCC[N+](C)(CCCC)CCCC.O=S(=O)([N-]S(=O)(=O)C(F)(F)F)C(F)(F)F, the activity coefficient amounted to 3.31 ± 0.15 (322.85 K), 3.35 ± 0.15 (332.65 K) and 3.35 ± 0.15 (343.15 K).

As to `CCC[N+](=O)[O-]` [1-nitropropane] + CCCCCCCCCC[N+](C)(C)C.O=S(=O)([N-]S(=O)(=O)C(F)(F)F)C(F)(F)F, the activity coefficient runs as follows: (322.85 K) 0.59 ± 0.03; (332.65 K) 0.59 ± 0.03; (343.15 K) 0.57 ± 0.03.

For the molecule `OCC(F)(F)F` [2,2,2-trifluoroethanol] + CCCCCCCC[N+](C)(C)C.O=S(=O)([N-]S(=O)(=O)C(F)(F)F)C(F)(F)F, the activity coefficient (322.85 K) turned out to be 0.4 ± 0.03, the activity coefficient (332.65 K) was 0.38 ± 0.03 and the activity coefficient (343.15 K) worked out at 0.35 ± 0.04.

In the case of `CC1CCCCC1` [methylcyclohexane] + CCCC[N+](C)(CCCC)CCCC.O=S(=O)([N-]S(=O)(=O)C(F)(F)F)C(F)(F)F, the activity coefficient (322.85 K) came out at 5.92 ± 0.27, the activity coefficient (332.65 K) is 5.91 ± 0.27 and the activity coefficient (343.15 K) is 5.58 ± 0.26.

Consider `C1COCCO1` [1,4-dioxane] + CCCCCCCCCC[N+](C)(C)C.O=S(=O)([N-]S(=O)(=O)C(F)(F)F)C(F)(F)F, for which the activity coefficient runs as follows: (322.85 K) 0.56 ± 0.03; (332.65 K) 0.57 ± 0.03; (343.15 K) 0.57 ± 0.03.

Take `CCCC=O` [butanal] + CCCCCCCCCC[N+](C)(C)C.O=S(=O)([N-]S(=O)(=O)C(F)(F)F)C(F)(F)F: the activity coefficient (322.85 K) was 0.47 ± 0.03, the activity coefficient (332.65 K) is 0.53 ± 0.03 and the activity coefficient (343.15 K) worked out at 0.51 ± 0.03.

As for `CC(C)CC(C)(C)C` [2,2,4-trimethylpentane] + CCCCCCCCCC[N+](C)(C)C.O=S(=O)([N-]S(=O)(=O)C(F)(F)F)C(F)(F)F, the activity coefficient reads like this: (322.85 K) 5.41 ± 0.25; (332.65 K) 5.29 ± 0.24; (343.15 K) 4.92 ± 0.22.

`CCCC(C)=O` [pentan-2-one] + CCCC[N+](C)(CCCC)CCCC.O=S(=O)([N-]S(=O)(=O)C(F)(F)F)C(F)(F)F: the activity coefficient stood at 0.55 ± 0.03 (322.85 K), 0.58 ± 0.03 (332.65 K) and 0.59 ± 0.03 (343.15 K).

In the case of `C#CCCCC` [1-hexyne] + CCCCCCCCCC[N+](C)(C)C.O=S(=O)([N-]S(=O)(=O)C(F)(F)F)C(F)(F)F, the activity coefficient by setting is: (322.85 K) 1.61 ± 0.06; (332.65 K) 1.63 ± 0.07; (343.15 K) 1.57 ± 0.06.

Regarding `CCCO` [propan-1-ol] + CCCCCCCC[N+](C)(C)C.O=S(=O)([N-]S(=O)(=O)C(F)(F)F)C(F)(F)F, the activity coefficient was 1.7 ± 0.07 (322.85 K), 1.55 ± 0.06 (332.65 K) and 1.37 ± 0.05 (343.15 K).

In the case of `CC1CCCC1` [methylcyclopentane] + CCCCCCCCCC[N+](C)(C)C.O=S(=O)([N-]S(=O)(=O)C(F)(F)F)C(F)(F)F, the activity coefficient stood at 2.99 ± 0.14 (322.85 K), 2.99 ± 0.14 (332.65 K) and 2.83 ± 0.13 (343.15 K).

In the case of `C#CCCCC` [1-hexyne] + CCCC[N+](C)(CCCC)CCCC.O=S(=O)([N-]S(=O)(=O)C(F)(F)F)C(F)(F)F, the activity coefficient is, setting by setting: (322.85 K) 2.12 ± 0.1; (332.65 K) 2.24 ± 0.1; (343.15 K) 2.2 ± 0.1.

Take `Cc1ccccc1` [toluene] + CCCC[N+](C)(CCCC)CCCC.O=S(=O)([N-]S(=O)(=O)C(F)(F)F)C(F)(F)F: the activity coefficient reads like this: (322.85 K) 1.13 ± 0.03; (332.65 K) 1.19 ± 0.04; (343.15 K) 1.19 ± 0.04.

For `CCC=O` [propanal] + CCCCCCCCCC[N+](C)(C)C.O=S(=O)([N-]S(=O)(=O)C(F)(F)F)C(F)(F)F, the activity coefficient is, setting by setting: (322.85 K) 0.4 ± 0.03; (332.65 K) 0.42 ± 0.03; (343.15 K) 0.41 ± 0.03.

With `C[N+](=O)[O-]` [nitromethane] + CCCCCCCCCC[N+](C)(C)C.O=S(=O)([N-]S(=O)(=O)C(F)(F)F)C(F)(F)F, the activity coefficient reads like this: (322.85 K) 0.56 ± 0.03; (332.65 K) 0.58 ± 0.03; (343.15 K) 0.55 ± 0.03.

For `Cc1ccccc1C` [1,2-dimethylbenzene] + CCCC[N+](C)(CCCC)CCCC.O=S(=O)([N-]S(=O)(=O)C(F)(F)F)C(F)(F)F, the activity coefficient is 1.38 ± 0.05 (322.85 K), 1.46 ± 0.06 (332.65 K) and 1.46 ± 0.06 (343.15 K).

As to `Cc1ccccc1C` [1,2-dimethylbenzene] + CCCCCCCC[N+](C)(C)C.O=S(=O)([N-]S(=O)(=O)C(F)(F)F)C(F)(F)F, the activity coefficient came to 1.24 ± 0.04 (322.85 K), 1.26 ± 0.04 (332.65 K) and 1.25 ± 0.04 (343.15 K).

As for `CCCCCCCC` [octane] + CCCCCCCC[N+](C)(C)C.O=S(=O)([N-]S(=O)(=O)C(F)(F)F)C(F)(F)F, the activity coefficient runs as follows: (322.85 K) 11 ± 0.51; (332.65 K) 10.3 ± 0.47; (343.15 K) 9.47 ± 0.43.

On to `CCCCCCC` [heptane] + CCCC[N+](C)(CCCC)CCCC.O=S(=O)([N-]S(=O)(=O)C(F)(F)F)C(F)(F)F, for which the activity coefficient (322.85 K) came to 8.88 ± 0.41, the activity coefficient (332.65 K) was found to be 8.82 ± 0.4 and the activity coefficient (343.15 K) came to 8.34 ± 0.38.

On to `CCCCCCCCCCC` [undecane] + CCCCCCCC[N+](CCCCCCCC)(CCCCCCCC)CCCCCCCC.O=S(=O)([N-]S(=O)(=O)C(F)(F)F)C(F)(F)F, for which the activity coefficient (343.15 K) is 2.54 ± 0.12.

Consider `CC1CCCC1` [methylcyclopentane] + CCCCCCCC[N+](C)(C)C.O=S(=O)([N-]S(=O)(=O)C(F)(F)F)C(F)(F)F, for which the activity coefficient reads like this: (322.85 K) 4.18 ± 0.19; (332.65 K) 3.95 ± 0.18; (343.15 K) 3.67 ± 0.17.

For `ClC(Cl)(Cl)Cl` [tetrachloromethane] + CCCCCCCC[N+](C)(C)C.O=S(=O)([N-]S(=O)(=O)C(F)(F)F)C(F)(F)F, the activity coefficient (322.85 K) is 1.63 ± 0.07, the activity coefficient (332.65 K) came to 1.63 ± 0.07 and the activity coefficient (343.15 K) came to 1.6 ± 0.06.

With `C[N+](=O)[O-]` [nitromethane] + CCCC[N+](C)(CCCC)CCCC.O=S(=O)([N-]S(=O)(=O)C(F)(F)F)C(F)(F)F, the activity coefficient by setting is: (322.85 K) 0.65 ± 0.03; (332.65 K) 0.65 ± 0.03; (343.15 K) 0.62 ± 0.03.

For `CCCC(C)=O` [pentan-2-one] + CCCCCCCC[N+](C)(C)C.O=S(=O)([N-]S(=O)(=O)C(F)(F)F)C(F)(F)F, the activity coefficient is 0.57 ± 0.03 (322.85 K), 0.57 ± 0.03 (332.65 K) and 0.57 ± 0.03 (343.15 K).

Take `CC(C)CC(C)(C)C` [2,2,4-trimethylpentane] + CCCC[N+](C)(CCCC)CCCC.O=S(=O)([N-]S(=O)(=O)C(F)(F)F)C(F)(F)F: the activity coefficient was found to be 8.87 ± 0.41 (322.85 K), 8.91 ± 0.41 (332.65 K) and 8.42 ± 0.39 (343.15 K).

`C1COCCO1` [1,4-dioxane] + CCCCCCCC[N+](CCCCCCCC)(CCCCCCCC)CCCCCCCC.O=S(=O)([N-]S(=O)(=O)C(F)(F)F)C(F)(F)F: the activity coefficient by setting is: (322.85 K) 0.47 ± 0.03; (332.65 K) 0.47 ± 0.03; (343.15 K) 0.47 ± 0.03.

These data come from the NIST ThermoML archive (doi:10.1021/je200637v).
